Experimental data as given in patent US8884097B1, “Method to condition an invertebrate to detect a concentration range of a chemical compound” (The United States of America as represented by the …, priority 2011, dated 2014).
“Also recorded” adds a separate entry of the source.

Key:
Microplitis croceipes [1] = assay: Conditioned food-searching response of wasps to individual odor concentrations; type: in vivo
Protocol: Female wasps were conditioned to a 30 μl solution of indole (Spectrum Chemical MFG CORP., Gardena, Calif.) dissolved in dichloromethane at either 100 μg/ml or 1 μg/ml. The solvent was allowed to evaporate for one min before the assay. The conditioning arena consisted of a 9 cm d, 1.5 cm h metal ring covered with aluminum foil that was placed inside a glass petri dish (10 cm d and 1 cm h) containing the compound-laden filter paper (2.5 cm d). A small (4 mm^2) piece of filter paper laden with the sugar water (1 molar sucrose solution) was placed at the center of the metal ring covered with aluminum foil. A total of 9 holes (ca 1 mm d) were punctured around the tissue paper so that diffusing volatiles could be perceived as they fed on the sugar water. Wasps were allowed to feed for 10 s three times with 30 s between feedings. All conditioning and testing was done under a chemical fume hood. The conditioning arena was replaced with fresh materials after every 5 females (ca 10-15 min). Females were placed in a Plexiglas cage with water for 2 hrs before testing. A total of 20 females were conditioned per day over 2 days.
All test solutions were allowed to evaporate for 1 minute before being presented to the wasps. The test arena was the same as the conditioning arena except that only a single (ca 1 mm d) hole was punctured at the center of the aluminum foil covered metal ring. Wasps were placed close to the hole using a transfer vial. Measured were food-specific behaviors (Wäckers et al., 2002) which included intense substrate antennation with frequent tight turning, a distinct lowering of the head for food searching and attempts to enter the hole. Responses parameters included a recordation of both the number of turns and overall duration of the food searching. Each female was presented a single odor concentration. A total of 20 females (10 to high and 10 to low concentrations) were tested per day over 2 days. Kruskal-Wallis non-parametric ANOVA was used to test the effect of concentration on wasp responses (StatSoft, Inc. 2003).
The arena and procedure for testing were as described in Example 1. However, the wasps were conditioned via positive food conditioning of sugar-water to indole at 1 μg/ml. Additionally, the same wasp was also negatively food conditioned to 100 μg/ml of indole with water. Each female was test with a single indole concentration at either 100 μg/ml of indole or at 1 μg/ml. A total of 20 females (10 to high and 10 to low concentrations) were tested per day over 2 days.
The arena and procedure for testing were as described in Example 1. However, the wasps were conditioned via positive food conditioning of sugar-water to 30 μl of conditioning solution of skatole dissolved in dichloromethane at either 0.001 μg/ml, 0.01 μg/ml, 0.1 μg/ml, 1 μg/ml, 10 μg/ml, or 100 μg/ml. A 1 molar sucrose solution was used as the unconditioned stimulus (reward).

Microplitis croceipes [2] = assay: as above; type: in vivo; details: positively conditioned to 100 μg/ml and 1000 μg/ml, tested at 1000 μg/ml
[3] = conditioned to 0.1 μg/ml, tested at 0.1 μg/ml
[4] = conditioned to 0.1 μg/ml, tested at 1 μg/ml
[5] = conditioned to 1 μg/ml, tested at 0.1 μg/ml
[6] = conditioned to 1 μg/ml, tested at 1 μg/ml
[7] = conditioned to 1 μg/ml, tested at 10 μg/ml
[8] = conditioned to 10 μg/ml, tested at 1 μg/ml
[9] = conditioned to 10 μg/ml, tested at 10 μg/ml
[10] = conditioned to 100 μg/ml, tested at 100 μg/ml

| Structure (SMILES) | response of conditioned wasps (food searching time and turns) (Microplitis croceipes [1]; [3]) | response of conditioned wasps (food searching time and turns) (Microplitis croceipes [1]; [4]) | response of conditioned wasps (food searching time and turns) (Microplitis croceipes [1]; [5]) | response of conditioned wasps (food searching time and turns) (Microplitis croceipes [1]; [6]) | response of conditioned wasps (food searching time and turns) (Microplitis croceipes [1]; [7]) | response of conditioned wasps (food searching time and turns) (Microplitis croceipes [1]; [8]) | response of conditioned wasps (food searching time and turns) (Microplitis croceipes [1]; [9]) | conditioned response to the individual volatile (Microplitis croceipes [1]; single odor experiment) | response of conditioned wasps (food searching time and turns) (Microplitis croceipes [1]; [10]) | other results |
| --- | --- | --- | --- | --- | --- | --- | --- | --- | --- | --- |
| C[C@]12CCC(=O)C[C@@H]1CC[C@@H]1[C@@H]2CC[C@]2(C)C=CC[C@@H]12 [androstenone, 5α-androst-16-en-3-one] | only responded to the conditioning concentration | only responded to the conditioning concentration | only responded to the conditioning concentration | only responded to the conditioning concentration | only responded to the conditioning concentration | did not respond to either concentration | did not respond to either concentration | weak |  | response of conditioned wasps (food searching time and turns) (Microplitis croceipes [1]; conditioned to 0.01 μg/ml, tested at 0.01 μg/ml): responded to the conditioning concentration; response of conditioned wasps (food searching time and turns) (Microplitis croceipes [1]; conditioned to 0.1 μg/ml, tested at 0.01 μg/ml): only responded to the conditioning concentration |
| c1ccc2[nH]ccc2c1 [indole] |  |  |  | responded to the conditioned concentration |  |  |  | respond reliably | responded to the conditioned concentration | response of conditioned wasps (food searching time and turns) (Microplitis croceipes [1]; conditioned to 1 μg/ml, tested at 100 μg/ml): responded; response of conditioned wasps (food searching time and turns) (Microplitis croceipes [1]; conditioned to 100 μg/ml, tested at 1 μg/ml): did not respond; response of conditioned wasps (food searching time and turns) (Microplitis croceipes [1]; positively conditioned to 1 μg/ml and negatively conditioned to 100 μg/ml, tested at 1 μg/ml): responded to the conditioned concentration; response of conditioned wasps (food searching time and turns) (Microplitis croceipes [1]; positively conditioned to 1 μg/ml and negatively conditioned to 100 μg/ml, tested at 100 μg/ml): did not respond to the negatively conditioned concentration; duration of the conditioned response compared with skatole (Microplitis croceipes [1]; single odor experiment): more prolonged response |
| C=CC(C)=CCC=C(C)C [ocimene, reference compound] |  |  |  |  |  |  |  |  |  | response of conditioned wasps to a non-conditioned odor (Microplitis croceipes [1]; single odor experiment, non-conditioned floral odor): do not respond |
| Cc1c[nH]c2ccccc12 [skatole, 3-methyl-indole] | no responses | no responses | responded to both concentrations; also recorded: able to detect it | responded to both concentrations | only responded to the conditioning concentration | responded to both skatole concentrations | responded to both skatole concentrations | respond reliably | responded to both skatole concentrations | response of conditioned wasps (food searching time and turns) (Microplitis croceipes [2]): responded to both of the conditioning concentrations; response of conditioned wasps (food searching time and turns) (Microplitis croceipes [1]; conditioned to 10 μg/ml, tested at 100 μg/ml): only responded to the conditioning concentration; response of conditioned wasps (food searching time and turns) (Microplitis croceipes [1]; conditioned to 100 μg/ml, tested at 10 μg/ml): responded to both skatole concentrations; response of conditioned wasps (food searching time and turns) (Microplitis croceipes [1]; conditioned to 100 μg/ml, tested at 1 mg/ml): only responded to the conditioning concentration; response of conditioned wasps (food searching time and turns) (Microplitis croceipes [1]; positively conditioned to 100 μg/ml and 1000 μg/ml, tested at 10 μg/ml): responded; response of conditioned wasps (food searching time and turns) (Microplitis croceipes [1]; positively conditioned to 100 μg/ml and 1000 μg/ml, tested at 100 μg/ml): responded to both of the conditioning concentrations |
